Reference: the supplement of paper PMC10307832

How the values were obtained:
Experiment in all cases: relative viability (nuclei count vs DMSO), 5 days (fraction); higher = more cells survive
RO-3306 + Lapatinib = compound: C1=CC2=C(C=CC(=C2)C=C3C(=O)NC(=NCC4=CC=CS4)S3)N=C1 [RO-3306] + CS(=O)(=O)CCNCc1ccc(-c2ccc3ncnc(Nc4ccc(OCc5cccc(F)c5)c(Cl)c4)c3c2)o1 [Lapatinib] (partner 2 µM)
Procedure, shortened: (§1)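 Relative viability equals treated-well nuclei counts divided by vehicle-well nuclei counts. Counts came from 4× images of lung cancer cell lines grown in 1536-well plates for 5 days after pin-tool dosing on the day after seeding. Dosing used one drug alone or a fixed anchor-drug dose plus five library-drug doses (not always all listed) in √10 steps, and values are medians of duplicate plates.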

[1] = compound: O=S(=O)(c1ccccc1)N(CC(F)(F)F)c1ccc(C(O)(C(F)(F)F)C(F)(F)F)cc1 + CC(=O)Nc1cccc(-n2c(=O)n(C3CC3)c(=O)c3c(Nc4ccc(I)cc4F)n(C)c(=O)c(C)c32)c1 [Trametinib] (partner 0.02 µM)
Procedure, shortened: as §1

[2] = compound: O=S(=O)(c1ccccc1)N(CC(F)(F)F)c1ccc(C(O)(C(F)(F)F)C(F)(F)F)cc1 + CS(=O)(=O)N1CCN(Cc2cc3nc(-c4cccc5[nH]ncc45)nc(N4CCOCC4)c3s2)CC1 [Pictilisib] (partner 1 µM)
Procedure, shortened: as §1

[3] = compound: O=S(=O)(c1ccccc1)N(CC(F)(F)F)c1ccc(C(O)(C(F)(F)F)C(F)(F)F)cc1 + C[C@@H](Oc1cc(-c2cnn(C3CCNCC3)c2)cnc1N)c1c(Cl)ccc(F)c1Cl [Crizotinib] (partner 1 µM)
Procedure, shortened: as §1

[4] = compound: O=S(=O)(c1ccccc1)N(CC(F)(F)F)c1ccc(C(O)(C(F)(F)F)C(F)(F)F)cc1 + Nc1nc2[nH]cc(CCc3ccc(C(=O)N[C@@H](CCC(=O)O)C(=O)O)cc3)c2c(=O)[nH]1 [Pemetrexed] (partner 0.2 µM)
Procedure, shortened: as §1

[5] = compound: O=S(=O)(c1ccccc1)N(CC(F)(F)F)c1ccc(C(O)(C(F)(F)F)C(F)(F)F)cc1 + O=C(CCCCCCC(=O)Nc1ccccc1)NO [Vorinostat] (partner 1 µM)
Procedure, shortened: as §1

| Cell Line | relative viability (RO-3306 + Lapatinib; first compound 0.01 µM) | relative viability (RO-3306 + Lapatinib; first compound 0.03162 µM) | relative viability (RO-3306 + Lapatinib; first compound 0.1 µM) | relative viability (RO-3306 + Lapatinib; first compound 0.3162 µM) | relative viability (RO-3306 + Lapatinib; first compound 1 µM) | relative viability ([1]; first compound 0.8 µM) | relative viability ([1]; first compound 2.53 µM) | relative viability ([1]; first compound 8 µM) | relative viability ([2]; first compound 0.8 µM) | relative viability ([2]; first compound 2.53 µM) | relative viability ([2]; first compound 8 µM) | relative viability ([3]; first compound 0.8 µM) | relative viability ([3]; first compound 2.53 µM) | relative viability ([3]; first compound 8 µM) | relative viability ([4]; first compound 0.8 µM) | relative viability ([4]; first compound 2.53 µM) | relative viability ([4]; first compound 8 µM) | relative viability ([5]; first compound 0.8 µM) | relative viability ([5]; first compound 2.53 µM) | relative viability ([5]; first compound 8 µM) |
| --- | --- | --- | --- | --- | --- | --- | --- | --- | --- | --- | --- | --- | --- | --- | --- | --- | --- | --- | --- | --- |
| HCC-15 | 0.919 | 0.779 | 0.84 | 0.893 | 0.592 | 0.37 | 0.302 | 0.291 | 0.785 | 0.684 | 0.654 | 0.867 | 0.766 | 0.676 | 0.213 | 0.23 | 0.243 | 0.748 | 0.682 | 0.63 |
| HCC-44 | 0.976 | 0.953 | 0.957 | 1.07 | 0.719 | 1.01 | 0.925 | 0.918 | 0.657 | 0.52 | 0.688 | 0.926 | 0.749 | 0.699 | 0.635 | 0.627 | 0.702 | 0.981 | 0.972 | 0.953 |
| NCI-H2170 | 0.254 | 0.302 | 0.272 | 0.265 | 0.302 | 0.973 | 0.779 | 0.814 | 0.305 | 0.291 | 0.307 | 1.25 | 1.19 | 1.21 | 0.256 | 0.274 | 0.28 | 0.863 | 0.695 | 0.761 |
| NCI-H2228 | 1.24 | 0.574 | 0.942 | 0.826 | 0.542 | 0.693 | 0.371 | 0.429 | 0.414 | 0.366 | 0.26 | 0.389 | 0.354 | 0.462 | 0.373 | 0.309 | 0.333 | 0.62 | 0.427 | 0.644 |
| NCI-H727 | 0.869 | 0.647 | 0.789 | 0.845 | 0.972 | 0.358 | 0.368 | 0.375 | 0.758 | 0.261 | 0.353 | 0.832 | 0.844 | 0.646 | – | – | – | 1.18 | 0.853 | 1.03 |
| NCI-H522 | – | – | – | – | – | 0.607 | 0.781 | 0.689 | – | – | – | – | – | – | 1.03 | 1.11 | 0.877 | 0.833 | 0.973 | 0.959 |
| NCI-H1563 | 1.03 | 0.911 | 0.862 | 0.979 | 0.922 | – | – | – | 0.734 | 0.655 | 0.581 | 0.873 | 0.742 | 0.733 | 0.737 | 0.749 | 0.75 | – | – | – |
| EPLC-272H | 0.789 | 0.595 | 0.803 | 0.768 | 0.849 | 0.274 | 0.289 | 0.269 | 0.316 | 0.302 | 0.35 | 1.24 | 0.742 | 0.841 | 0.361 | 0.41 | 0.376 | 0.319 | 0.476 | 0.396 |
| NCI-H1437 | 0.835 | 0.543 | 0.788 | 0.794 | 0.772 | 0.538 | 0.36 | 0.432 | 0.374 | 0.327 | 0.412 | 0.909 | 0.706 | 0.744 | 0.324 | 0.308 | 0.326 | 0.787 | 0.572 | 0.665 |
| CAL-12T | 0.61 | – | – | 0.73 | 0.591 | 0.247 | 0.265 | 0.238 | – | 0.342 | 0.542 | 0.708 | 0.417 | 0.477 | 1.29 | 1.06 | 0.982 | 0.672 | 0.578 | 0.548 |
| SK-LU-1 | 1.07 | 0.812 | 0.842 | 0.902 | 0.797 | 0.466 | 0.537 | 0.491 | 0.531 | 0.454 | 0.594 | 1.06 | 0.748 | 0.736 | 1.05 | 0.976 | 1.01 | 0.797 | 0.705 | 0.727 |
| LCLC-97TM1 | – | 0.794 | 0.949 | 1.22 | 1.09 | – | 0.234 | 0.165 | 0.174 | 0.218 | 0.187 | 0.314 | 0.371 | 0.297 | – | 0.16 | 0.179 | – | 0.562 | 0.567 |
| LXF-289 | 0.918 | 0.919 | 0.947 | 0.893 | 0.787 | 0.582 | 0.532 | 0.518 | 0.624 | 0.637 | 0.588 | 0.793 | 0.721 | 0.689 | 0.883 | 0.82 | 0.86 | 0.719 | 0.656 | 0.74 |
| HCC-366 | 1.1 | 0.939 | 0.91 | 1.09 | 0.759 | 0.469 | 0.335 | 0.23 | 0.181 | 0.165 | 0.135 | 0.903 | 0.54 | 0.314 | 0.16 | 0.182 | 0.174 | 0.506 | 0.325 | 0.279 |
| NCI-H1355 | 1.15 | 0.926 | 0.973 | 1.04 | 0.886 | 0.456 | 0.427 | 0.382 | 0.415 | 0.389 | 0.491 | 1.22 | 0.98 | 0.935 | 1.12 | 1.03 | 1.03 | 0.698 | 0.624 | 0.606 |
| H3255 | 0.236 | 0.227 | 0.245 | 0.26 | 0.26 | 0.623 | 0.565 | 0.649 | 0.492 | 0.51 | 0.396 | 0.755 | 0.776 | 0.829 | 0.602 | 0.526 | 0.502 | 0.716 | 0.752 | 0.667 |
